# According to ChEMBL document CHEMBL1125188, “Synthesis and evaluation of stilbene and dihydrostilbene derivatives as potential anticancer agents that inhibit tubulin polymerization” (J Med Chem, 1991):
# Legend:
# [1] = test system: HT-29; assay: Cytotoxic concentration required to inhibit 50% cell growth in HT-29 colon adenocarcinoma cell lines; assay type: functional; settings: Homo sapiens, read-out: ED50 (the source's name)
# [2] = test system: MLM; assay: Cytotoxic concentration required to inhibit 50% cell growth in MLM melanoma cell lines; assay type: functional; settings: Homo sapiens, read-out: ED50 (the source's name)
# [3] = test system: MCF7; assay: Cytotoxic concentration required to inhibit 50% cell growth in MCF-7 breast carcinoma cell lines; assay type: functional; settings: Homo sapiens, read-out: ED50 (the source's name)
# [4] = test system: SK-MEL-5; assay: Cytotoxic concentration required to inhibit 50% cell growth in SKMEL-5 melanoma cell lines; assay type: functional; settings: Homo sapiens, read-out: ED50 (the source's name)
# [5] = test system: A549; assay: Cytotoxic concentration required to inhibit 50% cell growth in A-549 lung carcinoma cell lines; assay type: functional; settings: Homo sapiens, read-out: ED50 (the source's name)
# [6] = biological target: Tubulin (Bos taurus, UniProt Q6B856+Q862L2+Q862F3); assay: Ability to inhibit Tubulin polymerization in Bovine brain; assay type: functional, tissue-based
SMILES,EC50 [1] [nM],EC50 [2] [nM],EC50 [3] [nM],EC50 [4] [nM],EC50 [5] [nM],IC50 [6] [nM]
COc1ccc(CCc2cc(OC)c(OC)c(OC)c2)cc1O,81,10,330,2.1,10,3300
COc1cc(/C=C\c2ccc(N(C)C)cc2)cc(OC)c1OC,8.1,9.4,5.8,0.15,4.1,3400
COc1cc(CCc2ccc(N(C)C)cc2)cc(OC)c1OC,77,120,64,59,83,29000
COc1cccc(/C=C\c2cc(OC)c(OC)c(OC)c2)c1,90,1400,140,60,130,8800
COc1cc(/C=C\c2ccc(Cl)cc2)cc(OC)c1OC,50,170,180,10,80,4800
COc1ccc(/C=C\c2cc(OC)c(OC)c(OC)c2)c(Cl)c1,66,140,46,17,51,3500
COc1ccc(CCc2cc(OC)c(OC)c(OC)c2)cc1,0.25,0.18,0.16,0.14,0.18,7900
COc1ccc(/C=C\c2cc(OC)c(OC)c(OC)c2)cc1,0.027,0.093,–,–,0.022,2200
COc1cc(/C=C\c2ccc(Br)cc2)cc(OC)c1OC,8.2,14,16,6.7,11,3100
COc1ccc(NCc2cc(OC)c(OC)c(OC)c2)cc1,1,1.6,2.4,0.7,1.9,23000
COc1cc(/C=C\c2ccccc2)cc(OC)c1OC,84,> 25000,250,120,170,36000
COc1cc(/C=C\c2ccc(OC(C)=O)cc2)cc(OC)c1OC,6000,6300,3000,6000,1700,29000
COc1ccc(NCc2cc(OC)cc(OC)c2)cc1,17800,> 25000,6080,2410,5710,29000
COc1ccc(CNc2cc(OC)c(OC)c(OC)c2)cc1,2240,> 25000,860,1130,830,> 50000
COc1ccc(/C=C/c2cc(OC)c(OC)c(OC)c2)cc1,1820,2070,1050,810,1180,> 50000
COc1cc(/C=C/c2ccc(N(C)C)cc2)cc(OC)c1OC,6.9,12.5,82,4.6,6.1,> 50000
COc1cccc2c1C(=O)c1c(O)c3c(c(O)c1C2=O)C[C@@](O)(C(=O)CO)C[C@@H]3O[C@H]1C[C@H](N)[C@H](O)[C@H](C)O1 [DOXORUBICIN],55,130,31,32,29,–
